The results in this text go back to article PMC10552397 (Cell Communication and Signaling : CCS, 2023).

Each structure is given as a SMILES string.

The assay has as its system HeLa GRASP55 KO cells. The experiment in a line: Secretome analysis by data-independent mass spectrometry. As to conditions: 100 nM, 24 h, serum-free, not apparent in wt. The assay is classed as cell-based. The procedure: For the preparation of secretomes, 2*10^5 HeLa wt or HeLa GRASP55 KO cells per well were seeded in a 6-well plate (n = 5 replicates for 4 different groups). […] After incubation, the medium was collected, centrifuged at 1,000 × g and 4 °C for 10 min and filtered through a 0.2 µm Acrodisc syringe filter (VWR, Radnor, PA, USA, #514–4131). After adding protease inhibitor cocktail (Roche, Basel, Switzerland, #5,892,791,001), the samples were snap frozen in liquid nitrogen and stored at -80 °C. Proteins were prepared for mass spectrometric analysis by a modified single-pot, solid-phase-enhance sample preparation (SP3) method. […] Finally, the sample was reconstituted in 0.1% trifluoroacetic acid and half of the sample analyzed by mass spectrometry. […]
Only proteins identified with at least two different peptides and 4 valid intensity values (MaxLFQ) in at least one experimental group were considered for further analysis. […] Annotation dependent significant abundance changes of protein groups were analysed using 1D and 2D annotation enrichment and respective differences visualized with split-violin plots with OriginPro 2020b.

As for `CCCCCC1=C/C(=C/c2[nH]c(-c3ccc[nH]3)cc2OC)N=C1C` [Prodigiosin, prodigiosin], the “abundance of signal peptide (SP) proteins in the secretome” value is “higher abundances”.
